Columns and labels:
[1] = tested on: uro-I injected zebrafish larvae; assay: Zebrafish CEP model, prophylaxis protocol (retinoid co-administered with uro-I injection); type: in vivo, Zebrafish (Danio rerio); details: 24 hours, vs DMSO; for porphyrin fluorescence in bones (operculum and vertebrae): 10 μM in E3 medium
Experimental: Techniques that can be used to perform the methods of the invention are described by Elenbaas, J. S., et al., FASEB, 2016, 30, 1798-1810; and Cunha, J. B., Scientific Reports, 2021, 11, 9601.
Validation and characterization of acitretin as a potential treatment for CEP was performed. Six dpf ABTL zebrafish larvae injected with uro-I were immediately transferred to 10 cm plastic dishes containing 10 μM acitretin or DMSO in E3 medium (prophylaxis protocol FIG. 2A) and incubated for 24 hours in the dark at 28.5° C. Porphyrin binding to bones and bone volume were analyzed by confocal microscopy as described above. Porphyrin excretion into the medium was quantified. Uro-I-injected larvae were transferred to 96-well plates, one larva/well, […] of […] acitretin or DMSO/well. Medium was collected after 24 hours and porphyrin was quantified as described previously.
(§1) Etretinate (Selleck Chemicals, Houston, TX) and tretinoin (Selleck Chemicals, Houston, TX) treatment was performed as described for acitretin. In addition to being used as prophylaxis, the therapeutic effect of acitretin was evaluated. Six dpf AB×TL zebrafish larvae were injected with Uro-I and 24 hours later they were transferred to E3 medium containing […] acitretin or DMSO. Porphyrin binding, excretion and bone volume were analyzed. Saos-2 cells were treated with […] acitretin or DMSO in medium containing MAC and Uro-I.

Saos-2 cells [2] = type: cell-based, human
Experimental: (§2) Saos-2 cells were plated in 12-well plates (1.5×10^5 cells/well) and allowed to attach overnight. Cells were then treated with Uro-I ([…] final concentration) or vehicle in medium containing MAC for 3 days. Experiments were conducted in a dark room and cells were kept shielded from light in a tissue culture incubator.
as §1
Saos-2 cells RNA was extracted using RNeasy mini kit (Qiagen, Catalog #: 74104). and gene expression was carried using the RT^2 Profiler PCR Array for human cellular stress responses (Qiagen, Catalog #: PAHS-019ZA) following manufacturer's instructions. A previously described qPCR (Elenbaas, J. S. et al. Gastroenterology 154, 1625-1629 e1628, doi:10.1053/j.gastro.2018.01.024 (2018)) was performed for COL1A1 and SERPINH1 (IDT Integrated DNA Technologies, PrimeTime assay ID Hs.PT.58.15517795 and Hs.PT.56a.26865778, respectively).

Saos-2 cells [3] = type: cell-based, human; remark: listed apart in the source
Experimental: Saos-2 cells were purchased from ATCC. Cells were maintained in McCoy 5A medium supplemented with 15% FBS, penicillin/streptomycin, non-essential amino acids, Hepes and L-glutamine. To induce mineralization, cells were treated with mineralization activation cocktail (MAC), consisting of 5 mM b-glycerophosphate, […] ascorbic acid and 10 nM dexamethasone. Uro-I solution preparation and treatment of zebrafish larvae and Saos-2 cells
as §2
Etretinate (Selleck Chemicals, Houston, TX) and tretinoin (Selleck Chemicals, Houston, TX) treatment was performed as described for acitretin. In addition to being used as prophylaxis, the therapeutic effect of acitretin was evaluated. […] Porphyrin binding, excretion and bone volume were analyzed. […]
Cell mineralization was quantified by ARS (Sigma Aldrich St. Louis, MO) staining as described previously (Harper, E. et al. PLoS One 12, e0188192, doi:10.1371/journal.pone.0188192 (2017)), with minor modifications. […] ARS standard curve (from 2-0.02 mM) and samples were transferred in triplicate to a 96-well plate and absorbance was measured at 405 nm.

zebrafish larvae [4] = details: in vivo
Experimental: Uro-I (uroporphyrin-I dihydrochloride; Frontier Scientific, Catalog #: U830-1) was initially resuspended in 0.1M NaOH and the pH was adjusted to neutral using 0.2 M Na2HPO4. Six days post fertilization (dpf), ABTL zebrafish larvae were injected via the retro-orbital route with approximately 3 nL of 7.2 mM Uro-I solution and control larvae were injected with vehicle (0.1M NaOH in 0.2M Na2HPO4). After injection, larvae were immediately transferred to Petri dishes wrapped with heavy duty aluminum foil and kept in a dark incubator, at 28.5° C., for 24 h. Where indicated, 7 dpf larvae were injected with approximately 2 nL of 0.2% w/v calcein (Sigma, Catalog #: C0875) 2 h prior to imaging.
Seven dpf AB×TL zebrafish larvae were anesthetized with tricaine-S (Syndel) and immobilized in 0.5% low melt agarose. Fluorescent z-series were captured using an Olympus FV500 confocal microscope (10× objective, confocal aperture of 300 mm) with an optical thickness of 10 mm and z-step size of 10 mm. Calcein was excited with a 488 nm argon laser and emission was captured between 505 and 525 nm. Porphyrin was excited with a 405 nm laser diode and emission was captured above 560 nm. Three-dimensional image reconstruction and quantification of fluorescent signal and bone volume were performed using Imaris 3D visualization and analysis software v7.7 (Bitplane).

[5] = tested on: uro-I injected zebrafish larvae; assay: High throughput drug screening (Prestwick library) in zebrafish CEP model; type: in vivo, Zebrafish (Danio rerio); details: 24 h, visual analysis vs DMSO-treated larvae, drug tested individually
Experimental: Unbiased high throughput drug screening was performed using the Prestwick library (Prestwick Chemical), which consists of 1,280 small molecules chosen by the manufacturer for their bioavailability and safety. […] Zebrafish E3 medium ([…]) was transferred to a 96-well half area imaging plate (Corning, cat. n. 3880) using a Multidrop dispenser (ThermoFisher Scientific). Compounds ([…] of 2 mM stock) were added to the wells using a multichannel plate handling robot (Biomek FX, Beckman Coulter Life Sciences). […] Control wells contained […] of DMSO.
Six dpf NHGRI-1 zebrafish larvae were injected retro-orbitally with approximately 2 nL of a solution of Uro-I (10 mM) and calcein (0.2% w/v). Immediately after injection, larvae were transferred to a 96-well test plate (two larvae in […] of E3 medium/well), including the DMSO control wells. Control larvae injected with the drug vehicle (dimethyl sulfoxide, DMSO) and calcein were transferred to E3 medium-only containing wells. Larvae were kept in the dark, at 28.5° C. After 24 h, they were anesthetized with tricaine-S, centrifuged at 500×g for two minutes and imaged using the ImageXpress Micro Cellular Imaging and Analysis System (Molecular Devices). Positive hits were selected based on visual identification of calcein signal increase and porphyrin signal decrease compared to DMSO-treated larvae. […]

zebrafish larvae [6] = assay: Acitretin dose-response curve, toxicity to zebrafish larvae; type: in vivo, Zebrafish (Danio rerio); details: dose-response 0.5-12.5 mM
[7] = tested on: uro-I injected zebrafish larvae; assay: Zebrafish CEP model, therapeutic protocol (acitretin 24 hours after uro-I injection); type: in vivo, Zebrafish (Danio rerio); details: acitretin from 24 hours after uro-I, further 24 hours
Experimental: as §1

Saos-2 cells [8] = assay: Saos-2 immunoblotting of ER stress (BiP) and autophagy (LC3-II) markers; type: cell-based, human; details: acitretin with MAC and Uro-I, vs DMSO
Experimental: as §2, §1
Saos-2 cells were lysed in ice cold RIPA buffer (Sigma Aldrich, St. Louis, MO) with protease inhibitor cocktail (Thermo Scientific, Waltham, MA) and scraped. Whole cell lysate was kept in the dark until reducing SDS-PAGE sample buffer was added. Immunoblotting, band densitometry and mass spectrometry were conducted as described previously (Maitra, D. et al. Cell Mol Gastroenterol Hepatol 8, 659-682 e651, doi:10.1016/j.jcmgh.2019.05.010 (2019); and Maitra, D. et al. J Biol Chem 290, 23711-23724, doi:10.1074/jbc.M114.636001 (2015)). […]

[9] = acitretin in uro-I treated cells

`CCOC(=O)/C=C(C)/C=C/C=C(C)/C=C/c1c(C)cc(OC)c(C)c1C` [etretinate] was tested. Which “porphyrin fluorescence in bones (operculum and vertebrae)” value (shortened to “porphyrin fluorescence in bones”) [1] did it give?
The value was “did not demonstrate significant activity”.

Which HSPA5 expression increase (Saos-2 cells [2]) does the source give for `Cl.Cl.O=C(O)CCC1=C(CC(=O)O)c2cc3nc(cc4[nH]c(cc5[nH]c(cc1n2)c(CC(=O)O)c5CCC(=O)O)c(CC(=O)O)c4CCC(=O)O)C(CC(=O)O)=C3CCC(=O)O` [Uro-I, uroporphyrin-I dihydrochloride] here?
Its HSPA5 expression increase is 2.1 ×.

And the SERPINH1 expression decrease (Saos-2 cells [2])?
Its SERPINH1 expression decrease is 3.3 ×.

And the SOD3 expression increase (Saos-2 cells [2])?
The SOD3 expression increase was 2.8 ×.

What about the “reduction in COL1A1 expression” value (Saos-2 cells [2]) of the same molecule?
Its value is 90%.

What about the “mineralization (ARS staining)” value (Saos-2 cells [3]) of the same molecule?
Its value is “decreased significantly”.

What about the “operculum and 4th vertebra volume” value (zebrafish larvae [4]) of the same molecule?
Its value is “significantly decreased”.

With `COc1cc(C)c(/C=C/C(C)=C/C=C/C(C)=C/C(=O)O)c(C)c1C` [acitretin] as the molecule, how does the “porphyrin fluorescence in bones” value [1] read?
Its value is “significantly reduced”.

What about the “operculum volume (bone volume)” value [1] of the same molecule?
Its value is “no effect”.

And the “uro-I excretion into the medium” value [1]?
Its value is “increased”.

What about the “uro-I accumulation in bones (screening hit)” value [5] of the same molecule?
The value was “decreased uro-I accumulation in bones”.

What about the SOD3 downregulation (Saos-2 cells [2]; [9]) of the same molecule?
Its SOD3 downregulation is 3.8 fold.

What about the “Upregulation of COL1A1” value (Saos-2 cells [2]; [9]) of the same molecule?
Its value is 1.7 ×.

What about the “Upregulation of SERPINH1” value (Saos-2 cells [2]; [9]) of the same molecule?
Its value is 5.4 ×.

What about the “toxicity to zebrafish larvae” value (zebrafish larvae [6]) of the same molecule?
Its value is “without being toxic”.

What about the “uro-I-mediated loss of mineralization (ARS staining)” value (Saos-2 cells [3]; 10 mM acitretin in medium containing MAC and Uro-I) of the same molecule?
Its value is “did not prevent”.

And the bone porphyrin fluorescence [7]?
Its bone porphyrin fluorescence is “did not decrease”.

And the operculum volume [7]?
Its operculum volume is “increased”.

What about the “uro-I excretion to the medium” value [7] of the same molecule?
The value was “increased”.

What about the “BiP level (ER stress response)” value (Saos-2 cells [8]) of the same molecule?
Its value is “reducing BiP level”.

What about the “LC3-II (autophagic flux)” value (Saos-2 cells [8]) of the same molecule?
The value was “reducing LC3-II”.

Which “porphyrin fluorescence in bones” value [1] does the source give for `CC1=C(/C=C/C(C)=C/C=C/C(C)=C/C(=O)O)C(C)(C)CCC1` [tretinoin, all trans-retinoic acid] here?
The value was “significantly reduced”.

What about the “operculum volume (bone volume)” value [1] of the same molecule?
Its value is “did not prevent loss in bone volume”.

— patent US20240148684A1, “COMPOUNDS AND METHODS FOR TREATING CONGENITAL ERYTHROPOIETIC PORPHYRIA” (RUTGERS, THE STATE UNIVERSITY OF NEW JERSEY, priority 2021, published 2024)
